EC50, IC50 and CC50 data for 18 compounds are collected here from patent US20220380347A1, “INHIBITORS OF CYSTEINE PROTEASES AND METHODS OF USE THEREOF” (Pardes Biosciences, Inc., priority 2020, published 2022).

One series has as its target 229E Mpro (Human coronavirus 229E, UniProt P0C6X1). The series is described as follows: 229E Mpro enzymatic assay (standard methods, SARS-CoV2 Mpro assay given as exemplary). The series is classed as biochemical, human coronavirus (HCov) 229E. A digest of the protocol: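 IC50 for 229E Mpro by standard methods; exemplary SARS-CoV-2 protocol used C-His6-tagged Mpro from E. coli, 25 nM enzyme, 25 μM substrate (Km 13.5 μM), in Tris-HCl pH 7.3, NaCl, EDTA, TCEP, 0.1% BSA. Inhibition normalised to no-compound and full-effect controls; four-parameter fit.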

Series [1] addresses COVID-19 (nCoV-2019, SARS-CoV2) Mpro (Severe acute respiratory syndrome coronavirus 2, UniProt P0DTD1). The series is described as follows: COVID-19 (nCoV-2019, SARS-CoV2) Mpro enzymatic assay. The series is classed as biochemical. The note with it: 25 nM Mpro, 25 μM substrate; read-out: COVID-19 Mpro IC50.
The test system of a further series is HCoV 229E. The experiment in a line: HCoV 229E cytopathic effect (CPE) assay, CellTiter Glo. The series is classed as cell-based, human coronavirus (HCov) 229E. The following applies: protection of virus-induced CPE.
A short description of series [2]: Cytotoxicity in parallel to the 229E CPE assay, without virus infection, CellTiter Glo. The note with it: 229E CC50, without virus infection. A general note: Cellular ATP, detected with luciferase, serves as a proxy for viable cell number.
Protocol: Reagents and instruments used in this assay include luminescent cell viability assay kit CellTiter Glo (Promega) and Microplate Reader Synergy2 (BioTek).
The cytotoxicity of compounds was assessed under the same conditions, but without virus infection, in parallel. Cell viability was measured with CellTiter Glo. The antiviral activity and cytotoxicity of compounds were expressed as % Inhibition and % Viability, respectively, and calculated with formulas.
The subject of another series is HCov OC43. The experiment in a line: HCoV OC43 cytopathic effect (CPE) assay, CellTiter Glo. It counts as cell-based, human coronavirus (HCov) OC43.
The mark [3] stands for this setting: Betacoronavirus 1, OC43, read-out: OC43 IC50 (uM) MEDIAN, median.
Setting [4] is: read-out: OC43 IC50 (uM) MEDIAN, median.

Where two headings read alike, the source gives them in different places.

229E Mpro, sequence (P0C6X1 2966-3267): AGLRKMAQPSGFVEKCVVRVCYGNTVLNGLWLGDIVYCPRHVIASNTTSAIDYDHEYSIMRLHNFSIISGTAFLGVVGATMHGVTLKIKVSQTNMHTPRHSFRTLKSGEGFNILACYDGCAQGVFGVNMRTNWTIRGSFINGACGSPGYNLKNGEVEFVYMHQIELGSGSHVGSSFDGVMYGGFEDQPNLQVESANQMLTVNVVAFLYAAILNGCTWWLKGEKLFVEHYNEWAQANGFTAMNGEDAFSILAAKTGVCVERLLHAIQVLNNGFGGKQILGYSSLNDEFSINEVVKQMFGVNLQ

On to `CN1CCN(C#N)C(C(=O)N(c2ccc(C(C)(C)C)cc2)C(C(=O)NC2CCCCC2)c2cccnc2)C1` (single isomer, unassigned) [Compound 217 Isomer 2, N-(4-tert-butylphenyl)-1-cyano-N-[2-(cyclohexylamino)-2-oxo-1-(3-pyridyl)ethyl]-4-methyl-piperazine-2-carboxamide], for which the EC50 at 229E Mpro (229E Mpro EC50) and with HCoV 229E (unidentified human coronavirus) was less than 2000 nM throughout. The IC50 in series [1] is less than 2000 nM. Also, the CC50 in series [2] is greater than 30000 nM.
Regarding `C[C@@H]1CC[C@H](C(=O)N(c2ccc(C(C)(C)C)cc2)C(C(=O)NC2CCCCC2)c2cccnc2)N1C#N` (single isomer, unassigned) [Compound 244 Isomer 1], the EC50 at 229E Mpro (229E Mpro EC50) and in the series with HCoV 229E (unidentified human coronavirus) was less than 2000 nM each time. In addition, the IC50 in series [1] lay within 2000 to 10000 nM. In addition, the CC50 in series [2] is greater than 30000 nM.
Turning to `CC(C)(C)c1ccc(N(C(=O)[C@H]2C[C@@H](O)CN2C#N)C(C(=O)NC2CCCCC2)c2cccnc2)cc1` (single isomer, unassigned) [Compound 254 Isomer 2], the EC50 at 229E Mpro (read-out: 229E Mpro EC50) was less than 2000 nM. For the same compound, the IC50 is less than 2000 nM in series [1] and less than 2 µM in the series on HCov OC43 (setting [3]). In series [2], this compound returned a CC50 greater than 30000 nM.
As to `CC(C)(C)c1ccc(N(C(=O)[C@H]2C[C@@H](F)CN2C#N)C(C(=O)NC2CCCCC2)c2cccnc2)cc1` (single isomer, unassigned) [Compound 870 Isomer 1], the EC50 at 229E Mpro (229E Mpro EC50) and in the series with HCoV 229E (unidentified human coronavirus) was less than 2000 nM in each case. In addition, the IC50 was less than 2000 nM in series [1] and less than 2 µM in the series on HCov OC43 (setting [3]).
Regarding `CC(C)(C)c1ccc(N(C(=O)[C@H]2C[C@@H](F)CN2C#N)C(C(=O)NC2CCCCC2)c2cccnc2)cc1` (single isomer, unassigned) [Compound 870 Isomer 2], the EC50 at 229E Mpro (read-out: 229E Mpro EC50) is less than 2000 nM; with HCoV 229E, 2000 to 10000 nM. For the same compound, the IC50 was 2000 to 10000 nM in series [1] and less than 2 µM in the series on HCov OC43 (setting [4]).
Regarding `CC(C)(C)c1ccc(N(C(=O)[C@H]2CC(F)(F)CN2C#N)C(C(=O)NC2CCCCC2)c2cccnc2)cc1` (single isomer, unassigned) [Compound 876 Isomer 1], the EC50 at 229E Mpro (229E Mpro EC50) and with HCoV 229E (unidentified human coronavirus) was less than 2000 nM throughout. Besides, the IC50 in series [1] lay in the range of 2000 to 10000 nM; with HCov OC43 (read-out: OC43 IC50 (uM) MEDIAN, median, listed as 876 Isomer 1), 10 to 30 µM.
With `C[C@@]1(O)C[C@H](C(=O)N(c2ccc(S(F)(F)(F)(F)F)cc2)C(C(=O)NC2CCC(F)(F)CC2)c2cccnc2)N(C#N)C1` (single isomer, unassigned) [Compound 1156 Isomer 1], the EC50 at 229E Mpro (229E Mpro EC50) and with HCoV 229E (unidentified human coronavirus) was less than 2000 nM each time. For the same compound, the values for the IC50 (in series [1]; in the series with HCov OC43 (setting [3])) were 2000 to 10000 nM and 2 to 10 µM, respectively.
In the case of `C[C@@]1(O)C[C@H](C(=O)N(c2ccc(S(F)(F)(F)(F)F)cc2)C(C(=O)NC2CCC(F)(F)CC2)c2cccnc2)N(C#N)C1` (single isomer, unassigned) [Compound 1156 Isomer 2], the EC50 at 229E Mpro (read-out: 229E Mpro EC50) is less than 2000 nM; in the series with HCoV 229E, 2000 to 10000 nM. Also, the IC50 was less than 2000 nM in series [1] and less than 2 µM in the series on HCov OC43 (setting [4]).
For `CC(C)(C)c1ccc(N(C(=O)c2c[nH]cn2)C(C(=O)NC2CCCCC2)c2cccnc2C#N)cc1` (stereo not drawn) [Compound 100, N-(4-tert-butylphenyl)-N-[1-(2-cyano-3-pyridyl)-2-(cyclohexylamino)-2-oxo-ethyl]-1H-imidazole-5-carboxamide], the EC50 on 229E Mpro (229E Mpro EC50) and in the series on HCoV 229E (unidentified human coronavirus) was 2000 to 10000 nM in each case. The IC50 in series [1] fell in the range of 10000 to 30000 nM. The CC50 in series [2] is greater than 30000 nM.
For `CC(C)(C)c1ccc(N(C(=O)C2CS(=O)(=O)CCN2C#N)C(C(=O)NC2CCCCC2)c2cccnc2)cc1` (stereo not drawn) [Compound 226], the results for the EC50 at 229E Mpro (229E Mpro EC50) and with HCoV 229E (unidentified human coronavirus) were less than 2000 nM and 2000 to 10000 nM, respectively. Moreover, the IC50 in series [1] is less than 2000 nM; with HCov OC43 (setting [3]), 2 to 10 µM.
Regarding `CC(C)(C)c1ccc(N(C(=O)[C@H]2CCCN2C#N)C(C(=O)NCC(=O)N2CCOCC2)c2cccnc2)cc1` (stereo partly drawn) [Compound 403, (2R)—N-(4-(tert-butyl)phenyl)-1-cyano-N-(2-((2-morpholino-2-oxoethyl)amino)-2-oxo-1-(pyridin-3-yl)ethyl)pyrrolidine-2-carboxamide], the EC50 was less than 2000 nM on 229E Mpro (229E Mpro EC50) and 2000 to 10000 nM with HCoV 229E (unidentified human coronavirus). Moreover, the IC50 is less than 2000 nM in series [1] and 2 to 10 µM with HCov OC43 (setting [3]).
For the compound `CN(C)C(=O)CNC(=O)C(c1cccnc1)N(C(=O)[C@H]1CCCN1C#N)c1ccc(C(C)(C)C)cc1` (stereo partly drawn) [Compound 415, (2R)—N-(4-(tert-butyl)phenyl)-1-cyano-N-(2-((2-(dimethylamino)-2-oxoethyl)amino)-2-oxo-1-(pyridin-3-yl)ethyl)pyrrolidine-2-carboxamide], the EC50 is less than 2000 nM at 229E Mpro (229E Mpro EC50) and 2000 to 10000 nM with HCoV 229E (unidentified human coronavirus). The IC50 in series [1] was in the range of 2000 to 10000 nM; in the series on HCov OC43 (setting [3]), 2 to 10 µM.
With `CC(C)(C)c1ccc(N(C(=O)[C@H]2C[C@@H](O)CN2C#N)C(C(=O)Nc2c(Cl)cccc2Cl)c2cccnc2)cc1` (stereo partly drawn) [Compound 591, (2R,4R)—N-(4-(tert-butyl)phenyl)-1-cyano-N-(2-((2,6-dichlorophenyl)amino)-2-oxo-1-(pyridin-3-yl)ethyl)-4-hydroxypyrrolidine-2-carboxamide], the EC50 at 229E Mpro (229E Mpro EC50) and in the series with HCoV 229E (unidentified human coronavirus) was 2000 to 10000 nM in each case. Also, the figures for the 50% inhibitory concentration (IC50) (in series [1]; in the series with HCov OC43 (setting [3])) were 2000 to 10000 nM and greater than 30 µM, respectively.
As to `CC(C)(C)c1ccc(N(C(=O)[C@H]2C[C@@H](O)CN2C#N)C(C(=O)NC2CCCCC2)c2c[nH]nn2)cc1` (stereo partly drawn) [Compound 663, (2R,4R)—N-(4-(tert-butyl)phenyl)-1-cyano-N-(2-(cyclohexylamino)-2-oxo-1-(1H-1,2,3-triazol-4-yl)ethyl)-4-hydroxypyrrolidine-2-carboxamide], the EC50 on 229E Mpro (229E Mpro EC50) and in the series on HCoV 229E (unidentified human coronavirus) was less than 2000 nM throughout. The IC50 in series [1] lay in the range of 2000 to 10000 nM; in the series with HCov OC43 (setting [3]), 2 to 10 µM.
Take `Cc1nc2ccc(N(C(=O)[C@H]3C[C@@H](O)CN3C#N)C(C(=O)NC3CCCCC3)c3cccnc3)cc2[nH]1` (stereo partly drawn) [Compound 759, (2R,4R)-1-cyano-N-(2-(cyclohexylamino)-2-oxo-1-(pyridin-3-yl)ethyl)-4-hydroxy-N-(2-methyl-1H-benzo[d]imidazol-6-yl)pyrrolidine-2-carboxamide]: the EC50 at 229E Mpro (229E Mpro EC50) was greater than 30000 nM; in the series with HCoV 229E (unidentified human coronavirus), less than 2000 nM. Also, the results for the IC50 (in series [1]; with HCov OC43 (setting [3])) were greater than 30000 nM and greater than 30 µM, respectively.
Take `CC(C)(C)c1ccc(N(C(=O)[C@H]2CCCN2C#N)C(C(=O)N2CC(F)C2)c2cccnc2)cc1` (stereo partly drawn) [Compound 952, (2R)—N-(4-(tert-butyl)phenyl)-1-cyano-N-(2-(3-fluoroazetidin-1-yl)-2-oxo-1-(pyridin-3-yl)ethyl)pyrrolidine-2-carboxamide]: the figures for the EC50 on 229E Mpro (229E Mpro EC50) and in the series with HCoV 229E (unidentified human coronavirus) were less than 2000 nM and 2000 to 10000 nM, respectively. Moreover, the values for the IC50 (in series [1]; with HCov OC43 (setting [3])) were 2000 to 10000 nM and 2 to 10 µM, respectively.
Consider `CN1CCN(C(=O)C(c2cccnc2)N(C(=O)[C@H]2CCCN2C#N)c2ccc(C(C)(C)C)cc2)CC1=O` (stereo partly drawn) [Compound 969], for which the EC50 on 229E Mpro (229E Mpro EC50) was less than 2000 nM; in the series with HCoV 229E (unidentified human coronavirus), 2000 to 10000 nM. Further, the IC50 in series [1] is less than 2000 nM; with HCov OC43 (setting [3]) it was 2 to 10 µM.
Consider `CC(C)(O)CNC(=O)C(c1cccnc1)N(C(=O)[C@H]1CCCN1C#N)c1ccc(C(C)(C)C)cc1` (stereo partly drawn) [Compound 1119], for which the results for the EC50 on 229E Mpro (229E Mpro EC50) and in the series on HCoV 229E (unidentified human coronavirus) were less than 2000 nM and 2000 to 10000 nM, respectively. Besides, the values for the IC50 (in series [1]; in the series with HCov OC43 (setting [3])) were 2000 to 10000 nM and 2 to 10 µM, respectively.

A word on the EC50: it is the midpoint of the concentration-response curve. As usually defined, the IC50 is the concentration at which inhibition is half-maximal. One may read the CC50 as the concentration giving 50% cytotoxicity.
